Experiment [1] concerns human marrow derived mesenchymal stem cells (hMSCs). As to the kind of experiment: Peptide immobilisation studies, hMSC proliferation (CyQuant) and FACS. Type of experiment: cell-based. The note with it: alanine substitution study; for Mean cell number: N-terminally tethered, seeding 5,000 cells per well, CyQuant, mean +/− SEM, n = 3. The source says: Could the antiproliferative activity in vitro of EPL001 in solution be more predictably evoked and investigated more readily if the peptide is instead tethered to the cell culture’s substratum? […] In the first study EPL001 was immobilised by either its N terminus or C terminus and human stem cells exposed accordingly. This followed a confirmation of dissolved EPL001’s antiproliferative activity in the same laboratory (JAH). In the second study, aa sections of EPL001 were substituted with alanine strings prior to tethering, to define a functional biological motif. Into the base of each well of a 24-well plate was inserted a glass coverslip (13mm diameter, borosilicate glass, SLS, Nottingham, UK), upon the upper surface of which had been immobilised an individual peptide using a bioconjugate technique. During preparation of the coverslips, the surfaces were modified with carboxyl (−COOH) or amine (−NH2) groups separately using a published method. The carboxyl on the coverslips or at the end of the peptide sequence were reacted with NHS in the presence of EDC, resulting in a semi-stable NHS ester, which could then be reacted with primary amines (−NH2) on the coverslips or at the end of the peptide sequences to form amide crosslinks. For the carboxyl modified coverslips, the final peptide grafted on to the surface via its NH2 terminus was in the form Glass-CO-NH-Peptide. For the amine modified coverslips, the final peptide grafted on to the surface via its COOH terminus was in the form Glass-NH-CO-Peptide. The concentration of the peptides across the glass was approximately […]. Uncoated glass was used as the reference control. Treatments were in triplicate (i.e. n = 3). The cells used were human marrow derived mesenchymal stem cells (hMSCs, Lonza, Slough, UK, cat No PT-2507). In the EPL001-terminus study they were seeded at 10,000 cells per well; in the alanine substitution study the density was 5,000 cells per well. The cells were maintained in DMEM with 10% FSC. EPL001 and three alanine-substituted versions of it were deployed separately: MKPLTGKVKEFNNI (EPL001), AAAAAGKVKEFNNI (EPL590), MKPLTAAAAEFNNI (EPL545) and MKPLTGKVKEAAAA (EPL104). The peptides in the alanine substitution study were N-terminally tethered to the substrate. Cell numbers were measured by CyQuant® (Invitrogen, Paisley, UK). […] Statistical analysis was by ANOVA using SPSS software.
Four 14-aa peptides were synthesised: MKPLTGKVKEFNNI (EPL001), AAAAAGKVKEFNNI (EPL590), MKPLTAAAAEFNNI (EPL545) and MKPLTGKVKEAAAA (EPL104). The peptides were generated from l-isomer amino acids by solid phase peptide synthesis (Model 9050, Milligen). All peptides were N-terminally tethered to the substrate by a bioconjugate technique. MSCs were derived from human bone marrow and maintained in DMEM with 10% FSC. Cells were seeded on peptide treated surfaces including a glass control in a 24-well plate with cell density 5 x 10^3. The growth inhibitory activity was examined via cell proliferation assays and cell cycle analysis, using PI and Ki-67 staining. The cell phenotype and viability (7-AAD) were analysed by flow cytometry.

Another experiment deals with DU145 cells. In words: MTS viable cell assay, DU145 (Epistem). Type of experiment: cell-based, human. The note with it: in words. As to the method: Further assays on human prostate cancer cells were conducted at a contract research organisation (Epistem, Manchester, UK). LNCaP or DU145 cells seeded at 3,000 cells/well across a 96-well plate were cultured in RPMI (phenol red free), 10% FCS, 1% sodium pyruvate, Pen/strep and L-glutamine for 24h before exposure to peptides, at a single dose level in the case of LNCaPs or multiple dose levels in the case of DU145s. (For dose levels see Results.) Controls received vehicle (1% PBS). For the DU145s peptide administration was repeated after 24h. 72h after the first administration (DU145s) or only administration (LNCaP) total viable cell numbers were measured colorimetrically (MTS) using a CellTiter 96 AQueous One Solution Cell Proliferation Assay (Promega, Southampton, UK), following manufacturer’s instructions. Briefly, the media on the plates was replaced with the CellTiter reagent diluted 1:5 in DMEM. The plates were returned to the incubator for 3 hours before reading absorbance at 492 nm on a FLUORstar OPTIMA (BMG Labtech). CellTiter data are the absorbance minus background values (CellTiter plus DMEM), expressed as (OD mean +/− SEM). Statistical analysis was by ANOVA, Dunnett’s multiple comparisons test.

A further experiment relates to Caenorhabditis elegans. Particulars: in words; cited from earlier work. The text has this: As a control compound there was synthesized EPL030, having the aa sequence KLKMNGKNIEPVFT. This is a scrambling of EPL001’s sequence, based on cards drawn at random by one of us (CRM). […] The figures for fecundity were EPL001 +43 ... || Returning to EPL030, the scrambled-sequence EPL001 comparator, this has engendered perplexity by displaying the same activity as EPL001 across multiple mammalian systems. Thus, EPL030 suppressed human prostate cancer cells in vitro more than EPL001 in two laboratories and the proliferation of rat bone marrow cells in vitro in a third.

For another experiment, the system named is hMSCs. Also on record: method as in earlier work. Particulars: EPL001 0.15µM or EPL140 15µM, three days; cited from earlier work.
Experiment [2] relates to hDPSC (Human Dental Pulp Derived Mesenchymal-Like Stem/Progenitor Cells). Details: method as in earlier work. The note with it: EPL001 0.15µM or EPL140 15µM, three days; cited from earlier work.
Experiment [3] deals with Steinernema siamkayai. In words: Nematode pilot study fecundity (S3 Table 1). Type of experiment: in vivo. The note with it: inoculum 5 IJs. The text has this: (§1) The attempt was made here to replicate prior fecundity work in another species of nematode, the entomopathogenic (insect slaying) Steinernema siamkayai. Species confirmation involved standard morphological and molecular techniques (S3 File, Nematodes). S. siamkayai is a biocontrol agent of potential economic significance in global agriculture, reducing the need for pesticides. Crucial for deployment is the production of ‘infective juveniles’. These forms penetrate the larvae of insect pests, releasing a bacterium, Xenorhabdus spp., which ultimately kills the larvae. Stock solutions (5 mg mL^-1) of EPL036 (IEPVFT) and EPL630 (KLKMNG) were made up and stored at −20 °C. Lipid Agar plates were prepared by pouring 5 ml media in 60 mm plastic Petri dishes. The plates were inoculated with an overnight-grown bacterial culture of Xenorhabdus spp. (10^9 cfu/ml) at 100 μl/plate and incubated at 28 °C for 24h. Xenorhabdus bacteria are symbiotically associated with S. siamkayai. While multiplying, Xenorhabdus metabolises the constituents of the lipid agar and the resulting by-products are the food supplement for the nematodes that triggers the worms to grow and multiply. From the stock solutions, peptides were introduced individually into the centre of the Lipid Agar plates with Xenorhabdus lawn. Two concentrations of peptide were used, 4 and 8 μL of the 5 mg mL^-1 stock peptide solutions (making 20 and 40 μg of peptide per plate in total, respectively, i.e. ~6 and ~12 μM). Each peptide solution was uniformly spread using an L shaped spreader and allowed to absorb into the agar plate for 10 minutes. Nematodes were harvested beforehand as follows. Third-stage infective juveniles (IJs) of S. siamkayai were used to infect fourth instar Galleria larvae. Following larval death, the Galleria cadavers were placed on a White’s Trap to harvest fresh progeny within 5–6 days. After storage in sterile water, these new-generation IJs were concentrated and inoculated on the bacterial plates on Day 1 at 500 and 1000 IJs /plate. The eight treatments (two inocula at two peptide concentrations) and two controls (two inocula without peptides) were replicated (x3) and incubated at 28 °C. Observations of behaviour and morphology were made at intervals throughout the study, then on Day 5 (i.e. after 4 units of 24h) the nematodes were harvested. Two ml of distilled water was poured on each Petri dish and gently stirred to release the nematodes from the surface. The surface washings containing suspended nematodes were collected in a standard volume of 20 ml of distilled water. The number of mature adults (male and female) and the second-generation juveniles (J1, J2, J3 and pre-adults) were counted using a dissecting microscope (x10 magnification, 4 fields) in 0.05 ml subsamples (x3) and multiplied up to the standard volume of 20 ml.
Mean number of A) Infective juveniles and B) Adults following inoculation of Petri dishes treated with EPL036 and EPL630 at 4 µL and 8 µL and an untreated control; Petri dishes were initially inoculated with 5 infective juveniles of Steinernema siamkayai following the method used in the main manuscript (Single way ANOVA presented beneath each data set).

Experiment [4] has as its system Steinernema siamkayai. In words: Steinernema siamkayai reproduction and development on lipid agar plates with hexapeptides. Details: key to Infective juveniles / Adults: counts per plate, scaled from 0.05 ml subsamples to 20 ml. The format is in vivo.
Source text: as §1
Fig 2 Developmental impact on Steinernema siamkayai of hexapeptides after 4 days. INOCULUM = founding population of infective juveniles (IJs). ‘Infective juveniles’ on the vertical axis are mostly second-generation IJs. Peptides applied at the start of the study were EPL036 = IEPVFT, […] = KLKMNG. Total = Adults + Infective juveniles. Data are mean +/- SEM (average of 3 replicates). Statistical analysis: ANOVA. Control bars are doubly represented for ease of comparison. Note different vertical axes. […]

For the substance “MKPLTAAAAEFNNI [EPL545, Substituted EPL001; alanines 6–9]”, in experiment [1] (Day 7), the “Cell number vs Glass” value was −29% and the Mean cell number is given as 10,007 +/−3,281. In addition, in experiment [1] (Day 14), the “Cell number vs Glass” value is recorded as −32% and the Mean cell number is given as 18,055 +/−1,771.
Regarding “MKPVFNNI [EPL801, EPL601 with all of the C-terminal triplet NNI from sSgII-70]”, the Cell inhibitory activity result in the experiment with DU145 cells is “inactive”.
Regarding “KLKNMGNKIEPVFT [EPL040, Scrambled EPL001 control]”, in the experiment on Caenorhabditis elegans, the “Fecundity effect in C. elegans” value is listed as “anti-fecundity”.
On to “MLKTGEKPNKFNNI [EPL140, Variant of human model compound EPL141, with KF instead of FK]”, for which, in the experiment with hMSCs, the Bmal1 expression entry is on record as “↑”, the OCN expression entry is on record as “↓”, the PPARγ expression entry is reported as “↓↓” and the Per2 expression result was “↓”. In the experiment on hMSCs, the Rev-ErbA expression entry is “↓” and the Sox9 expression result is “↓↓”. In experiment [2], the Bmal1 expression result is recorded as “↑↑”, the OCN expression entry is “↓↓”, the PPARγ expression entry is given as “↓” and the Per2 expression result is “↑↑”. In experiment [2], the Rev-ErbA expression result was “↓” and the Sox9 expression entry is on record as “(↑)”.
For the substance KLKMNG [EPL630, KLKMNG, EPL030 Front 6], the Adults is 1.9 in the experiment on Steinernema siamkayai [3] (4 µL, mean of 9 reps); 1 in the experiment with Steinernema siamkayai [3] (4 µL, rep 1); 1 with Steinernema siamkayai [3] (4 µL, rep 2); 2 in the experiment on Steinernema siamkayai [3] (4 µL, rep 3); 2 in the experiment on Steinernema siamkayai [3] (4 µL, rep 4); 2 in the experiment with Steinernema siamkayai [3] (4 µL, rep 5). Also, the Adults with Steinernema siamkayai [3] (4 µL, rep 6) is 3; in the experiment on Steinernema siamkayai [3] (4 µL, rep 7), 2; with Steinernema siamkayai [3] (4 µL, rep 8) it was 2; in the experiment with Steinernema siamkayai [3] (4 µL, rep 9) it was 2; with Steinernema siamkayai [3] (8 µL, rep 1) it was 4; in the experiment with Steinernema siamkayai [3] (8 µL, rep 2), 5. Further, the Adults with Steinernema siamkayai [4] (S3 Table 2, 8 µL, inoculum 500, mean of 3 reps) came out at 363. The Infective juveniles with Steinernema siamkayai [3] (4 µL, mean of 9 reps) worked out at 10.1. In addition, the “Egg production in females” value in the experiment with Steinernema siamkayai [4] (compared with untreated controls, 48h exposure (Fig 3)) was “markedly below that of controls”. The “Adults as % of the population at termination” value in the experiment with Steinernema siamkayai [4] (controls ~23%) is recorded as 26–29%. For the same substance, the “Time after incubation to fully grown males and females” value with Steinernema siamkayai [4] (observational) is reported as 48 h. For the same substance, in the experiment with Steinernema siamkayai [4] (observational), the “Time for infective juveniles to transform into pre-adults” value is “about 36 h”.
Consider “MKPLTGKVKEAAAA [EPL104, Substituted EPL001; alanines 11–14]”, for which the “Mean cell number below that of EPL001-N” value in experiment [1] (14 days) was 16%. The “Cell number vs Glass” value in experiment [1] (Day 7) is −29%; in experiment [1] (Day 14) it was −37%. Besides, the “Number of cells in the G0/G1 phase” value in experiment [1] (FACS, PI, 86% for glass control) was determined as 90%. The Mean cell number is listed as 10,010 +/−4,427 in experiment [1] (Day 7) and 16,736 +/−1,302 in experiment [1] (Day 14). Moreover, in experiment [1] (at termination, control cells 26.95%), the “Ki67 staining, % of cells” value was found to be 12.69%.

The record behind these values is article PMC9714824, “Hexapeptides from mammalian inhibitory hormone hunt activate and inactivate nematode reproduction” (PLOS ONE, 2022).
